According to ChEMBL document CHEMBL1201862, “PubChem BioAssay data set” (2004):
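Cells were grown in 96-well plates and exposed to each compound for 48 hours at five concentrations; endpoints were interpolated linearly between bracketing concentrations, or set to the highest concentration if not reached. Abbreviation: GI50, concentration required for 50% inhibition of growth.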 Calls of active or inactive are those of the source. Rule as the data show it: active = GI50 up to about 1.1 µM and inactive = higher.

Experiments:
Assay in all cases: NCI tumour cell line growth inhibition, 48 h
M14 = test system: M14
HCT-15 = test system: HCT-15
SF-539 = test system: SF-539
Malme-3M = test system: Malme-3M
OVCAR-4 = test system: OVCAR-4
RXF 393 = test system: RXF 393
MDA-MB-231 = test system: MDA-MB-231
DU-145 = test system: DU-145
786-0 = test system: 786-0
CCRF-CEM = test system: CCRF-CEM
OVCAR-3 = test system: OVCAR-3
UACC-257 = test system: UACC-257
SK-MEL-5 = test system: SK-MEL-5
LOX IMVI = test system: LOX IMVI
HT-29 = test system: HT-29
EKVX = test system: EKVX
SK-MEL-2 = test system: SK-MEL-2
SF-268 = test system: SF-268
A549 = test system: A549
KM12 = test system: KM12
UACC-62 = test system: UACC-62
NCI-H23 = test system: NCI-H23
HOP-92 = test system: HOP-92
U-251 = test system: U-251
SN12C = test system: SN12C
ACHN = test system: ACHN
SNB-19 = test system: SNB-19
BT-549 = test system: BT-549
A498 = test system: A498
SF-295 = test system: SF-295
T47D = test system: T47D
OVCAR-8 = test system: OVCAR-8
MDA-N = test system: MDA-N
HL-60 = test system: HL-60
MOLT-4 = test system: MOLT-4
IGROV-1 = test system: IGROV-1
NCI-H460 = test system: NCI-H460
SW-620 = test system: SW-620
SK-OV-3 = test system: SK-OV-3
UO-31 = test system: UO-31
MCF7 = test system: MCF7
HCC 2998 = test system: HCC 2998
NCI-H226 = test system: NCI-H226
NCI-H522 = test system: NCI-H522
SK-MEL-28 = test system: SK-MEL-28
MDA-MB-435 = test system: MDA-MB-435
PC-3 = test system: PC-3
RPMI-8226 = test system: RPMI-8226
HOP-62 = test system: HOP-62
CAKI-1 = test system: CAKI-1
SR = test system: SR
OVCAR-5 = test system: OVCAR-5
TK-10 = test system: TK-10
HCT-116 = test system: HCT-116
NCI/ADR-RES = test system: NCI/ADR-RES
COLO 205 = test system: COLO 205
Hs-578T = test system: Hs-578T

Question: What does the source list for `COc1ccc(/C=C2/C(=O)C(c3ccccc3)N(c3ccccc3)C2=O)cc1OC` (configuration not stated)?
Answer: GI50 (M14): > 10 µM (inactive); GI50 (HCT-15): > 10 µM; GI50 (SF-539): > 10 µM (inactive); GI50 (Malme-3M): 1.42 µM (inactive); GI50 (OVCAR-4): > 10 µM (inactive); GI50 (RXF 393): > 10 µM (inactive); GI50 (MDA-MB-231): > 10 µM (inactive); GI50 (DU-145): > 10 µM (inactive); GI50 (786-0): > 10 µM (inactive); GI50 (CCRF-CEM): > 10 µM (inactive); GI50 (OVCAR-3): > 10 µM (inactive); GI50 (UACC-257): > 10 µM (inactive); GI50 (SK-MEL-5): 0.168 µM (active); GI50 (LOX IMVI): > 10 µM (inactive); GI50 (HT-29): > 10 µM (inactive); GI50 (EKVX): > 10 µM (inactive); GI50 (SK-MEL-2): > 10 µM (inactive); GI50 (SF-268): > 10 µM (inactive); GI50 (A549): > 10 µM (inactive); GI50 (KM12): > 10 µM (inactive); GI50 (UACC-62): > 10 µM (inactive); GI50 (NCI-H23): > 10 µM (inactive); GI50 (HOP-92): > 10 µM (inactive); GI50 (U-251): > 10 µM (inactive); GI50 (SN12C): > 10 µM (inactive); GI50 (ACHN): > 10 µM (inactive); GI50 (SNB-19): > 10 µM (inactive); GI50 (BT-549): > 10 µM (inactive); GI50 (A498): 1.41 µM (inactive); GI50 (SF-295): > 10 µM (inactive); GI50 (T47D): > 10 µM (inactive); GI50 (OVCAR-8): > 10 µM (inactive); GI50 (MDA-N): > 10 µM (inactive); GI50 (HL-60): > 10 µM (inactive); GI50 (MOLT-4): > 10 µM (inactive); GI50 (IGROV-1): 0.975 µM (active); GI50 (NCI-H460): > 10 µM (inactive); GI50 (SW-620): > 10 µM (inactive); GI50 (SK-OV-3): > 10 µM (inactive); GI50 (UO-31): > 10 µM (inactive); GI50 (MCF7): > 10 µM (inactive); GI50 (HCC 2998): > 10 µM (inactive); GI50 (NCI-H226): > 10 µM (inactive); GI50 (NCI-H522): > 10 µM (inactive); GI50 (SK-MEL-28): > 10 µM (inactive); GI50 (MDA-MB-435): > 10 µM (inactive); GI50 (PC-3): > 10 µM (inactive); GI50 (RPMI-8226): > 10 µM (inactive); GI50 (HOP-62): > 10 µM (inactive); GI50 (CAKI-1): > 10 µM (inactive); GI50 (SR): > 10 µM (inactive); GI50 (OVCAR-5): > 10 µM (inactive); GI50 (TK-10): > 10 µM (inactive); GI50 (HCT-116): > 10 µM (inactive); GI50 (NCI/ADR-RES): > 10 µM (inactive); GI50 (COLO 205): > 10 µM (inactive); GI50 (Hs-578T): > 10 µM (inactive)
